Test system: Mfn2 null MEFs
Experiment: Mitochondrial elongation (aspect ratio) fusogenicity assay
Assay type: cell-based, mouse
Design: % long compare to B: dose or concentration left out as unconfirmed
Conditions: for % long compare to B: mitochondrial elongation relative to Cpd B (B01 = 100), compound overnight as printed (FIG. 48); for % long compare to B / Aspect ratio (MEAN ± SEM): Mfn2 null MEFs; for Aspect ratio (MEAN ± SEM): overnight, treatment with 1 μM compound (footnote); for Fusogenicity Rank: rank order of aspect ratio among 44 soluble library compounds
From the text: A cultured murine embryonic fibroblast assay system was used in which mitochondrial elongation (an increase in aspect ratio) reflects enhanced mitochondrial fusion.
A pharmacophore model was generated based on the interactions of HR1 and HR2 domains in the calculated structural model of Mfn2 in the closed conformation. The key features included hydrophobic interactions involving Mfn2 HR1: Val372 and Met376, and aromatic interactions and hydrogen bonding involving Mfn2 HR1 His380. […] A library comprising ˜14 million commercially available compounds was prepared in silico and evaluated using PHASE to fit these criteria. Top ranked hits were clustered, and filtered based on pharmacological properties using Qikprop. The top 55 (see TABLE 4) commercially available small molecules conforming to the model were selected for functional screening and purchased in 1 mg aliquots. […] Images were acquired by confocal microscopy. Each compound was scored for fusogenicity (see e.g., FIG. 24A) and % cell death (see e.g., FIG. 24B).
Cells were excited with 408 nm (Hoechst), […] (MitoTracker Green and Calcein AM, GFP), or 637 nm (TMRE, MitoTracker Orange, Ethidium homodimer-1, and AF594-Dextran) laser diodes. For mitochondrial elongation studies mitochondrial aspect ratio (long axis/short axis) was calculated using automated edge detection and Image J software. Mitochondrial depolarization was calculated as % of green mitochondria visualized on MitoTracker Green and TMRE merged images, expressed as green/(green+yellow mitochondria)×100.

SMILES	% long compare to B	Aspect ratio (MEAN ± SEM)	Fusogenicity Rank
CC(Sc1nnc(-c2cccs2)n1C1CC1)C(=O)Nc1sc2c(c1C(N)=O)CCC2 (stereo not shown) [1-C12, 2-(2-{[4-cyclopropyl-5-(thiophen-2-yl)-4H-1,2,4-triazol-3-yl]-sulfanyl}propanamido)-4H,5H,6H-cyclopenta[b]-thiophene-3-carboxamide]	13%		
NC(=O)c1c(NC(=O)CSc2nnc(-c3ccco3)n2-c2ccccc2)sc2c1CCC2 [1-F1, 2-(2-{[5-(furan-2-yl)-4-phenyl-4H-1,2,4-triazol-3-yl]sulfanyl}-acetamido)-4H,5H,6H-cyclo-penta[b]thiophene-3-carboxamide]	21%		
CCn1c(CCc2ccccc2)nnc1SCC(=O)Nc1sc2c(c1C(N)=O)CCC(C)C2 (stereo not shown) [2-A4, 2-(2-{[4-ethyl-5-(2-phenylethyl)-4H-1,2,4-triazol-3-yl]sulfanyl}acetamido)-6-methyl-4,5,6,7-tetrahydro-1-benzothiophene-3-carboxamide]	3%		
NC(=O)c1c(NC(=O)CSc2nnc(C3CC3)n2Cc2ccccc2)sc2c1CCCC2 [1-H11, 2-{2-[(4-benzyl-5-cyclopropyl-4H-1,2,4-triazol-3-yl)-sulfanyl]acetamido}-4,5,6,7-tetrahydro-1-benzothiophene-3-carboxamide]	15%		
CC(Sc1nnc(-c2cccs2)n1-c1ccccc1)C(=O)Nc1sc2c(c1C(N)=O)CCC2 (stereo not shown) [1-F7, 2-(2-{[4-phenyl-5-(thiophen-2-yl)-4H-1,2,4-lriazol-3-yl]sul-fanyl}propanamido)-4H,5H,6H-cyclopenta[b]thiophene-3-carboxamide]	−26%		
c1ccc(CSCCc2nc(C3CCOC3)no2)cc1 (stereo not shown) [E07, 5-[2-(benzylsulfanyl)ethyl]-3-(oxolan-3-yl)-1,2,4-oxadiazole]	4%		
COc1ccc2c(c1)C1(SCCN1C(=O)c1ccccc1C)C(=O)N2Cc1cccc(C(F)(F)F)c1 (stereo not shown) [drawing 210, 5-methoxy-3′-(2-methylbenzoyl)-1-{[3-(trifluoromethyl)phenyl]methyl}-1,2-dihydrospiro[indole-3,2′-[1,3]thiazolidine]-2-one]		3.5 ± 0.6	26
CC(Sc1nnc(Cc2cccs2)n1C)C(=O)Nc1sc2c(c1C(N)=O)CCC2 (stereo not shown) [1-B7, 2-[2-({4-methyl-5-[(thiophen-2-yl)methyl]-4H-1,2,4-triazol-3-yl}sulfanyl)propanamido]-4H,5H,6H-cyclopenta[b]thio-phene-3-carboxamide]	41%		
CC(/N=N/C(=N)SC1CC(=O)N(c2cccc(C(=O)O)c2)C1=O)c1ccccc1 (stereo not shown) [drawing 247, 3-(2,5-dioxo-3-{[(E)-N-[(1-phenylethyl)imino]carbamimidoyl]sulfanyl}pyrrolidin-1-yl)benzoic acid]		3.3 ± 0.0	31
Cc1ccc(SC2CCN(Cc3cc4n(n3)CCNC4)CC2)cc1 [drawing 246, 4-[(4-methylphenyl)sulfanyl]-1-({4H,5H,6H,7H-pyrazolo[1,5-a]pyrazin-2-yl}methyl)piperidine]		2.9 ± 0.2	39
CCC(C)NC(=O)c1ccccc1NC(=O)C(C)Sc1ccc(C)cc1 (stereo not shown) [E04, N-(butan-2-yl)-2-{2-[(4-methyl-phenyl)sulfanyl]pro-panamido}benzamide]	1%		
CC1CCCCC1NC(=O)NCCSCc1ccccc1 (stereo not shown) [drawing 224, 1-[2-(benzylsulfanyl)ethyl]-3-(2-methylcyclohexyl)urea]		6.8 ± 0.6	4
O=C(NCCCCc1ccccc1)Nc1ccccc1 [pA, 3-phenyl-1-(4-phenylbutyl)urea]	59%		
O=C(NCCSCc1ccc(Br)s1)C1CCCN(C(=O)c2cccs2)C1 (stereo not shown) [B09, N-(2-{[(5-bromothiophen-2-yl)methyl]sulfanyl}-ethyl)-1-(thiophene-2-carbonyl)piperidine-3-carboxamide]	36%		
Cc1cc(C)n2nc(C(=O)N3C[C@@H]4CCN(Cc5nccn5C)[C@@H]4C3)cc2n1 [D08, 2-{[(3aS,6aS)-5-{5,7-dimethylpyrazolo[1,5-a]pyrimidine-2-carbonyl}-octahydropyrrolo[3,4-b]pyrrol-1-yl]methyl}-1-methyl-1H-imidazole]	114%		
Cc1ccc2c(c1)SC(C(=O)NCc1ccc(N3CCCN(C)CC3)nc1)C2 (stereo not shown) [A07, 6-methyl-N-{[6-(4-methyl-1,4-diazepan-1-yl)pyridin-3-yl]methyl}-2,3-dihydro-1-benzothiophene-2-carboxamide]	14%		

SMILES	% long compare to B	Aspect ratio (MEAN ± SEM)	Fusogenicity Rank
CC1CCc2c(sc(NC(=O)CSc3nncn3-c3ccccc3)c2C(N)=O)C1 (stereo not shown) [1-C3, 6-methyl-2-{2-[(4-phenyl-4H-1,2,4-triazol-3-yl)sulfanyl]acetamido}-4,5,6,7-tetrahydro-1-benzothiophene-3-carboxamide]	−9%		
O=C(NCCSCc1ccccc1)C1CCCCO1 (stereo not shown) [E05, N-[2-(benzyl-sulfanyl)ethyl]oxane-2-carboxamide]	1%		
O=C(CSCCc1ccccn1)Nc1ccc(Cl)c(Cl)c1 [drawing 205, N-(3,4-dichlorophenyl)-2-{[2-(pyridin-2-yl)ethyl]sulfanyl}acetamide]		2.8 ± 0.1	41
Cn1c(CC(=O)Nc2ccccc2)nnc1SCC(=O)Nc1sc2c(c1C(=O)NCc1ccccc1)CCCC2 [2-A1, N-benzyl-2-[2-({4-methyl-5-[(phenylcarbamoyl)methyl]-4H-1,2,4-triazol-3-yl}sulfanyl)acetamido]-4,5,6,7-tetrahydro-1-benzothiophene-3-carboxamide]	26%		
CC(Sc1nnc(C2CC2)n1-c1ccccc1)C(=O)Nc1sc2c(c1C#N)CCCCC2 (stereo not shown) [1-G5, N-{3-cyano-4H,5H,6H,7H,8H-cyclohepta[b]thiophen-2-yl}-2-[(5-cyclopropyl-4-phenyl-4H-1,2,4-triazol-3-yl)sulfanyl]propana-mide]	7%		
CC(Sc1nnc(N2CCCCC2)n1-c1ccccc1)C(=O)Nc1sc2c(c1C(N)=O)CCC2 (stereo not shown) [1-A12, 2-(2-{[4-phenyl-5-(piperidin-1-yl)-4H-1,2,4-triazol-3-yl]sul-fanyl]propanamido)-4H,5H,6H-cyclopenta[b]thiophene-3-carboxamide]	−8%		
COCCNC(=O)c1c(NC(=O)CSc2nnc(C3CC3)n2C)sc2c1CCCC2 [1-B6, 2-{2-[(5-cyclopropyl-4-methyl-4H-1,2,4-triazol-3-yl)sulfanyl]acetamido}-N-(2-methoxyethyl)-4,5,6,7-tetrahydro-1-benzothiophene-3-carboxamide]	68%		
Cc1ccc(-n2c(SC(C)C(=O)Nc3ccnn3C(C)C)nnc2N2CCOCC2)cc1 (stereo not shown) [drawing 229, 2-{[4-(4-methylphenyl)-5-(morpholin-4-yl)-4H-1,2,4-triazol-3-yl]sulfanyl}-N-[1-(propan-2-yl)-1H-pyrazol-5-yl]propanamide]		4.1 ± 0.9	15
CC1CCc2c(sc(NC(=O)CSc3nnc(C4CC4)n3C)c2C(N)=O)C1 (stereo not shown) [1-A11, 2-{2-[(5-cyclopropyl-4-methyl-4H-1,2,4-triazol-3-yl)sulfanyl]acetamido}-6-methyl-4,5,6,7-tetrahydro-1-benzothiophene-3-carboxamide]	6%		
CC(Sc1nnc(-c2ccccc2)n1-c1ccccc1)C(=O)Nc1sc2c(c1C(N)=O)CCC2 (stereo not shown) [1-H8, 2-{2-[(diphenyl-4H-1,2,4-triazol-3-yl)sulfanyl]propan-amido}-4H,5H,6H-cyclo-penta[b]thiophene-3-carboxamide]	−4%		
O=C(NCCSCc1ccc(Br)s1)C1CCCN(C(=O)c2cccs2)C1 (stereo not shown) [drawing 213, N-(2-{[(5-bromothiophen-2-yl)methyl]sulfanyl}ethyl)-1-(thiophene-2-carbonyl)piperidine-3-carboxamide]		5.1 ± 0.2	9
COc1ccc2c(c1)C1(SCCN1C(=O)c1ccccc1C)C(=O)N2Cc1cccc(C(F)(F)F)c1 (stereo not shown) [D05, 5-methoxy-3′-(2-methylbenzoyl)-1-{[3-(trifluoromethyl)-phenyl]methyl}-1,2-dihydrospiro[indole-3,2′-[1,3]thiazolidine]-2-one]	4%		
Cc1cccc(NC(=O)NCCCCc2ccccc2)c1 [A3, 3-(3-methylphenyl)-1-(4-phenylbutyl)urea]	32%		
CCOc1ccccc1NC(=O)CSCc1cc(=O)c2ccc(C)c(C)c2[nH]1 [drawing 248, 2-{[(7,8-dimethyl-4-oxo-1,4-dihydroquinolin-2-yl)methyl]sulfanyl}-N-(2-ethoxyphenyl)acetamide]		3.7 ± 0.6	24
Cc1nnc(SCCCNC(=O)c2n[nH]c3c2CN(C)CC3)s1 [drawing 216, 5-methyl-N-{3-[(5-methyl-1,3,4-thiadiazol-2-yl)sulfanyl]propyl}-1H,4H,5H,6H,7H-pyrazolo[4,3-c]pyridine-3-carboxamide]		3.1 ± 0.3	34

From patent publication US10844023B2 (Washington University, priority 2017, dated 2020)
